Measurements taken from article PMC10861852, “Loss of activation by GABA in vertebrate delta ionotropic glutamate receptors” (Proceedings of the National Academy of Sciences of the …, 2024).

Assays:
DanGluD2A^Lc = assay: Two-electrode voltage clamp, inhibition of constitutive current in oocytes; format: cell-based, Danio rerio; conditions: lurcher-mutant receptor
RatGluD2^9x = target: T1, RatGluD2^9x (Rattus norvegicus, UniProt Q63226, A686S/D753Q/K694R/N720P/N763K/P806D/Q786M/R787V/Y613F); assay: Two-electrode voltage clamp, responses to ligands in mutant-expressing oocytes; format: cell-based; conditions: ligands 30 mM
T1 construct: expressed in transfected cells; host or cells: Xenopus laevis oocytes injected with mRNA
T1 sequence (Q63226 24-1007 Y613F/A686S/K694R/N720P/D753Q/N763K/Q786M/R787V/P806D): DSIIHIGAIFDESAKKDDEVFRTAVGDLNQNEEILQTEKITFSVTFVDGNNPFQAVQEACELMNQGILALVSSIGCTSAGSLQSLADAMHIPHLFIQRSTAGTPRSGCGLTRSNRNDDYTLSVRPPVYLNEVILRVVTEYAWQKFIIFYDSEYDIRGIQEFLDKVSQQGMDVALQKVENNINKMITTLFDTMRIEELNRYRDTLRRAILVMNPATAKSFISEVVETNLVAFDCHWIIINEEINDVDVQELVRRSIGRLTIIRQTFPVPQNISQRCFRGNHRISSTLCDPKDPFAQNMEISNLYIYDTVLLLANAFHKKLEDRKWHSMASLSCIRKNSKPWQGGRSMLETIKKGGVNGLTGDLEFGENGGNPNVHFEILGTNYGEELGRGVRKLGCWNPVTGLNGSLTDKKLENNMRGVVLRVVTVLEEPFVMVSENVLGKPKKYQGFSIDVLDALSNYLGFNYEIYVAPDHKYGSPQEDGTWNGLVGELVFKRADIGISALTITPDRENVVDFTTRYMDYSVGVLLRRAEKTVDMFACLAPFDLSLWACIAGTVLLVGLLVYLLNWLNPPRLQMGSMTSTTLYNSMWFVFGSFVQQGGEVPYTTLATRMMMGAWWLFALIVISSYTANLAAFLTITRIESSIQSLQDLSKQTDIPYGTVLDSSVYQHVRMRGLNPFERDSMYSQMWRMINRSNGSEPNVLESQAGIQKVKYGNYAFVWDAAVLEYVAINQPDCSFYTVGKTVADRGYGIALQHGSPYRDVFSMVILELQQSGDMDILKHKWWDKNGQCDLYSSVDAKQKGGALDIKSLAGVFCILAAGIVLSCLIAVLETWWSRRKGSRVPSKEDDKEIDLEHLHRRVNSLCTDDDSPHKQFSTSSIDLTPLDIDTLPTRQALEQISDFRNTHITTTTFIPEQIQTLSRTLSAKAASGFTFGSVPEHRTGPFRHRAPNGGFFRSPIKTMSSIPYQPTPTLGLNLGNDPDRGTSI
Text: If the 10 mutations discussed above drove the loss of function in vertebrate delta iGluRs, one might expect that the latter could be “reawakened” via active invertebrate delta iGluR-like mutations here. We therefore engineered mutant RatGluD2 iGluRs to contain at these positions the equivalent residues from starfish delta iGluRs. These mutants were RatGluD2^5x, containing Y613F, A686S, K694R, N720P, and P806D substitutions (pink in Fig. 6A), and RatGluD2^9x, additionally containing N763K, D753Q, Q786M, and R787V (cyan in Fig. 6A).
Fig. 6. AcaGluD-like mutations alter RatGluD2 receptor function. (A) D-serine bound RatGluD2 from X-ray structure PDB:2v3u ([13]). Selected amino acid residues are indicated, colored, shown as sticks, and labeled 5×, 9×, 10×, and/or Lc according to the multiple mutants they were incorporated into. 10× mutant included 10×, 9×, and 5× positions. 9× included 9× and 5×. 5× included only 5×. […] (B–E) Example current responses to different neurotransmitter ligands (30 mM) and to pore blocker pentamidine (Pent, 100 μM) in oocytes expressing indicated RatGluD2 mutants. The dashed line indicates zero current baseline. (F) Individual (dots) and mean (columns) responses to ligands in oocytes expressing indicated RatGluD2 mutants (n = 4 to 5).

AcaGluD = target: T2, AcaGluD (Acanthaster planci, UniProt A0A8B7XXR5); assay: Two-electrode voltage clamp, ligand-gated currents in oocytes; format: cell-based
T2 sequence (A0A8B7XXR5 24-958): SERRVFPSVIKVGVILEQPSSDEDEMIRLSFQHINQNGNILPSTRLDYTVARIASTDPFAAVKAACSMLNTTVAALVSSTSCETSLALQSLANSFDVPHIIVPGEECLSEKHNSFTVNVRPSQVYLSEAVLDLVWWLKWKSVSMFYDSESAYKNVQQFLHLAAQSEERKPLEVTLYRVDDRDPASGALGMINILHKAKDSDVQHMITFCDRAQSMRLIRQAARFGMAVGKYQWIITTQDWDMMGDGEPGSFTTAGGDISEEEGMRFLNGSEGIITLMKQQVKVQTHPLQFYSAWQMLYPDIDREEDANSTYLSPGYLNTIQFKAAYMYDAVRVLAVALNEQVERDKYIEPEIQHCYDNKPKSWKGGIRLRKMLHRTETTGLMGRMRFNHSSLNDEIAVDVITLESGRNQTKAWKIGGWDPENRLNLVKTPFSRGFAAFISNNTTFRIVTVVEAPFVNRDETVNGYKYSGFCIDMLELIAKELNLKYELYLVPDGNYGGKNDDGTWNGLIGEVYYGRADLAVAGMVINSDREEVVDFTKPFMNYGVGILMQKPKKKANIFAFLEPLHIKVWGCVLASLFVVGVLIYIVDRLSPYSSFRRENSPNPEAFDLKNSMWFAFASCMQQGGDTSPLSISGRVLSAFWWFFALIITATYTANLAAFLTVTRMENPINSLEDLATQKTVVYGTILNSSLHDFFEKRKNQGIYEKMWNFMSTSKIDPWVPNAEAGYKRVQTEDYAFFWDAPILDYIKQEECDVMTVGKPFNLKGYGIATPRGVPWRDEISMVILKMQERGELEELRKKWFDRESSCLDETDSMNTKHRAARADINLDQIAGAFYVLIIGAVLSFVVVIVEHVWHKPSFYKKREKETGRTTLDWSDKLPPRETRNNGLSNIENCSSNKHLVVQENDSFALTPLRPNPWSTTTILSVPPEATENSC

Row | Compound | effect on constitutive currents (DanGluD2A^Lc) | current response to ligand (RatGluD2^9x) | relative efficacy (AcaGluD; WT, relative ligand-gated current amplitude, n = 7) | EC50 (AcaGluD; 0 Ca2+, n = 4) | maximum ligand-gated current amplitude (AcaGluD; in the presence of 1.8 mM Ca2+) | EC50 (AcaGluD; ligand-gated current, 1.8 mM Ca2+ (regular bath solution)) | maximum ligand-gated current amplitude (AcaGluD; nominally Ca2+-free solutions) | inactivation of constitutive current relative to D-serine (DanGluD2A^Lc; n = 4) | EC50 (AcaGluD; 0 Ca2+, n = 5) | maximum GABA-gated current amplitude (AcaGluD; WT, mutant comparison (Fig. 5B), n = 4) | EC50 (AcaGluD; ligand-gated current, 1.8 mM Ca2+ (regular bath solution), n = 5)
1 | N[C@H](CO)C(=O)O [D-serine] | inactivated | no responses | 12 ± 3% | – | – | – | – | – | – | – | –
2 | NCC(=O)O [glycine] | inactivated | no responses | – | 2000 ± 100 µM | 0.33 ± 0.01 µA | 2000 ± 100 µM | 0.08 ± 0.01 µA | – | – | – | –
3 | NCCCC(=O)O [GABA, γ-aminobutyric acid] | – | no responses | – | – | 6.0 ± 1.0 µA | – | 0.42 ± 0.13 µA | 58 ± 8% | 5 ± 0.6 µM | 8.2 ± 1.1 μA | 13 ± 3 µM
